{
  "source": "patent US11938121B2",
  "about": "“Treatment of infections and biofilm formation using a cellulose synthase inhibitor” (Purdue Research Foundation, priority 2020, dated 2024)",
  "key": {"[1]": {"molecular_target": "T1, YFP-AtCESA6 cellulose synthase complexes (CSCs) in root epidermal cells (Arabidopsis thaliana, UniProt Q94JQ6)", "T1 construct": "expressed in transfected cells; host or cells: transgenic Arabidopsis thaliana YFP-AtCESA6 seedlings (total protein extract for DARTS; root epidermal cells for imaging)", "T1 sequence (O48946 whole entry)": "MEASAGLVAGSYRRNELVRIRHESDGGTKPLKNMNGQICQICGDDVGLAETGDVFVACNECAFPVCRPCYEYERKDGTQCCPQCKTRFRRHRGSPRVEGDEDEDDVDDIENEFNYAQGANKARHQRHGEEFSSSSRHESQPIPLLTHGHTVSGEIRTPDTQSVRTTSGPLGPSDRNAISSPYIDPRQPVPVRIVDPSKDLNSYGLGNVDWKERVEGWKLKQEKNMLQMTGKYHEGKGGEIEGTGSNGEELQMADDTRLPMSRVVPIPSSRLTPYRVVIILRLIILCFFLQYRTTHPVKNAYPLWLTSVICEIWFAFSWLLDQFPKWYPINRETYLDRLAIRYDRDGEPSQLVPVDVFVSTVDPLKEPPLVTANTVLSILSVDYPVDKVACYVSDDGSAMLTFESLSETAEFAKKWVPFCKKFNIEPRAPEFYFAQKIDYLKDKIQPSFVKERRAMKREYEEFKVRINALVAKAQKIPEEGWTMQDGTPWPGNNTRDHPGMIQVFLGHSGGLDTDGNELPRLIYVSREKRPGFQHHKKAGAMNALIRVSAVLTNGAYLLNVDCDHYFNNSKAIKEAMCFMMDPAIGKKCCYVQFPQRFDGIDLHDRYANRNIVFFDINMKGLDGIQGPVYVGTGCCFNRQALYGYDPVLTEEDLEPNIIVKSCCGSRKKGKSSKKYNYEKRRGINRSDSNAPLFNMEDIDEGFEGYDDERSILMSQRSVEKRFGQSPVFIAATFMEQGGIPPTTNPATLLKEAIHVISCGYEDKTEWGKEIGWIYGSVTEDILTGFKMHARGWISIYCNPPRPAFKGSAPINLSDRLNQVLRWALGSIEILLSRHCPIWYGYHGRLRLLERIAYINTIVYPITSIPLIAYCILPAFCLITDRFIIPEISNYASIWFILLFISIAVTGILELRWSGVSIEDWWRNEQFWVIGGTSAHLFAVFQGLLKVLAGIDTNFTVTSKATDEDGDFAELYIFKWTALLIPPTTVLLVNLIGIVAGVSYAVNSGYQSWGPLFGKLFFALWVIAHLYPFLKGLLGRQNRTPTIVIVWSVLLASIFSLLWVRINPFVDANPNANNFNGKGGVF", "T1 sequence (Q941L0 whole entry, further chain)": "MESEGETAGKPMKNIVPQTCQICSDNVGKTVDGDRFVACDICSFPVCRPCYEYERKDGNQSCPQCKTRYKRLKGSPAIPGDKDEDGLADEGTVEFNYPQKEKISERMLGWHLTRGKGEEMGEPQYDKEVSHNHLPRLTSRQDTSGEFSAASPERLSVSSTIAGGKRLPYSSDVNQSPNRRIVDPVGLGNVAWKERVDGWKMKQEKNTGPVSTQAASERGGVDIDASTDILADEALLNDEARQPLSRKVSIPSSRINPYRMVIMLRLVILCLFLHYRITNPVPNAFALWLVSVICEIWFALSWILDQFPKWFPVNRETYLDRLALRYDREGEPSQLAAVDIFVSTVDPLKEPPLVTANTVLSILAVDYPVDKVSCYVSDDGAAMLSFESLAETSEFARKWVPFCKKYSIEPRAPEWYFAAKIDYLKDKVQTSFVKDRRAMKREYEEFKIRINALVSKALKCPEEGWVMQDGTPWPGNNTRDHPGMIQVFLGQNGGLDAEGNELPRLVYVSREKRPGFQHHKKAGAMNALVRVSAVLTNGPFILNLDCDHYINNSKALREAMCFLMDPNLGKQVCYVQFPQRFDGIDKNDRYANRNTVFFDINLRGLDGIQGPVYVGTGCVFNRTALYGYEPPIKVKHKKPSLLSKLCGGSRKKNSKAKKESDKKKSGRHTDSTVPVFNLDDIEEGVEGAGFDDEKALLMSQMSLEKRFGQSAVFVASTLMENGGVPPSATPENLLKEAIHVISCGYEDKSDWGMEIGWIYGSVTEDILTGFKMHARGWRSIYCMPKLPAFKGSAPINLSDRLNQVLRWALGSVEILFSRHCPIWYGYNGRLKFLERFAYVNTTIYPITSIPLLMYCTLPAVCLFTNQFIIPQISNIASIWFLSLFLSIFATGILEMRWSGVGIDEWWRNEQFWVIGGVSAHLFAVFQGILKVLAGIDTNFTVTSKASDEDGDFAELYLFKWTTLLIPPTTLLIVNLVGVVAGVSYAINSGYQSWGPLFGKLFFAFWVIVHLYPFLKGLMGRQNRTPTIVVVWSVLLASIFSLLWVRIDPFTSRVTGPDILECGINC", "T1 sequence (Q94JQ6 whole entry)": "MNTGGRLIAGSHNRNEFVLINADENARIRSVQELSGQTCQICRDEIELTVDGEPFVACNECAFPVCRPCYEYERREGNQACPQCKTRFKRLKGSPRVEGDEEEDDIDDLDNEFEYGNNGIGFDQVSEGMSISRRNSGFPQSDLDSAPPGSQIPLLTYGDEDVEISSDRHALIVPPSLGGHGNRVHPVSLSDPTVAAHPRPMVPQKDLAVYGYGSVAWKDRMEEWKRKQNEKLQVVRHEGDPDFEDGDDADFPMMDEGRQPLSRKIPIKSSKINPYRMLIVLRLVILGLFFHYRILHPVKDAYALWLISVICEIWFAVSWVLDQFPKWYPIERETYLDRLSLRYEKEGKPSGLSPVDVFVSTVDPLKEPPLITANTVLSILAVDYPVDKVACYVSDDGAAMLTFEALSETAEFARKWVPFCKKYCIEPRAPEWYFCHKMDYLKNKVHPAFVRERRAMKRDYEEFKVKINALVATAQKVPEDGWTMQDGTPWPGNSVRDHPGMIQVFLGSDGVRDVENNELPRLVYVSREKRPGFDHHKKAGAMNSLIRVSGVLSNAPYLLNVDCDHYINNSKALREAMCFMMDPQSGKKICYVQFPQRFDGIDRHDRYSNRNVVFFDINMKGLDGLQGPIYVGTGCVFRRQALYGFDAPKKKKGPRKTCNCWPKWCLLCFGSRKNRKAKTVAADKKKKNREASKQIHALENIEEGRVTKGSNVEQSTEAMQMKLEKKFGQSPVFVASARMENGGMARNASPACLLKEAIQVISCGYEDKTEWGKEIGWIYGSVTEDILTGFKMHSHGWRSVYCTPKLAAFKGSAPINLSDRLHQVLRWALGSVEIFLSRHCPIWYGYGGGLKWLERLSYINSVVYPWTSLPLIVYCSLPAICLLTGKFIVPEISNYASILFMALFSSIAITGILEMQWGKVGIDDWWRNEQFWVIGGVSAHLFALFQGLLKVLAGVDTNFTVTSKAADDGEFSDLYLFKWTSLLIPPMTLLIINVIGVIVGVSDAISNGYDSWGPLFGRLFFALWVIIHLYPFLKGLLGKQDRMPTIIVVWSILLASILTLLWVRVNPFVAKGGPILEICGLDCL", "assay": "Spinning-disk confocal live-cell imaging of CSC trafficking", "type": "cell-based", "settings": "6 μM", "experimental": "For SDCM live cell imaging, seedlings were grown vertically for 5 d, and images were taken from the 2nd or 3rd epidermal cell below the first obvious root hair in the root elongation zone. Two thin strips of double-sided adhesive tape were placed on top of glass slides approximately 2 cm apart. 100 μl of ½-strength MS liquid growth medium containing 0.1% DMSO or 6 μM of ES20-1 was applied to the slide, and seedlings were mounted in the liquid medium. A 22×40 mm cover glass was placed on top of the double-sided tape for imaging. For longer term imaging during CESA velocity analysis, seedlings were mounted on a piece of 1-mm thick 0.6% Phytagel pad affixed to the glass slide to minimize compression and liquid evaporation.\nTo examine the cellular localization of YFP-AtCESA6 and YFP-AtCESA6; ManI-CFP, SDCM imaging was performed using a CSU-X1-A1 Yokogawa scanning unit mounted on an Olympus IX-83 microscope equipped with a 100×/1.4NA UPlanSApo oil objective (Olympus) and an Andor iXon Ultra 897BV EMCCD camera (Andor Technology). YFP and CFP fluorescence was excited with 515-nm and 445-nm laser lines and emission collected through 542/27-nm and 479/40-nm filters, respectively.\nFor fluorescence recovery after photobleaching (FRAP) experiments, images were collected using a Zeiss Observer Z.1 microscope, equipped with a Yokogawa CSU-X1 head and a 100×/1.46 NA PlanApo objective (Zeiss). For the PM-localized CESA6 FRAP, photobleaching was performed with a Vector scanner (Intelligent Imaging Innovations) with a 515-nm laser line at 100% power and 1 ms/scan. Timelapse images were collected at the PM with a 10-s interval for 64 frames, with photobleaching in a small region (44.2 μm^2) after the 4th frame, and recovery for total 10 min.\nImage analysis was performed using ImageJ. For CESA particle density analyses, regions of interest (ROIs) without abundant Golgi signals were chosen using the Freehand selection tool. CESA particles were detected automatically on 8-bit images using the Find Maxima tool with the same noise threshold for all images. CESA particle density for each ROI was calculated by dividing the number of particles by the ROI area. To analyze CESA particle dynamics, 5-min time-lapse series with 5-s intervals were collected. Average intensity projections were generated to identify the trajectories of CSC particles. Image drift was corrected using the StackReg plugin (Thevenaz et al., 1998). Kymographs were generated, and the velocities of CESA particles were measured as the reciprocal of the slope of individual CESA particles in the kymographs. To quantify cortical vesicles, 1 μm z-series stack with 0.2 μm as the step size and 20-s time-lapses were collected. The focal plane at 0.4 μm below the PM was used for cortical SmaCC analysis. Small particles showing motility in time-lapse series were considered to be SmaCCs. For the FRAP assay of PM-localized CSCs, a smaller area (16 μm^2) within the bleached region was used for analyses. The CSC delivery events during the first 5 min of recovery were manually counted according to the criteria described previously (Li et al., Proc. Natl. Acad Sci. USA, 2016, 113, 11348-11353). […] The CSC delivery rate was calculated by dividing the number of delivery events by the measured area and time."}, "[2]": {"system": "PIN2-GFP, GFP-PIP2a, GFP-HDEL, VHA-a1-GFP, YFP-Got1p", "assay": "Live-cell imaging of fluorescence-tagged marker proteins", "type": "cell-based, Arabidopsis thaliana", "settings": "6 μM, 2 h", "experimental": "To test the effect of ES20-1 on cellular localization of endomembrane marker proteins, transgenic plants expressing different fluorescence-tagged proteins were grown on ½-strength MS agar plates for 5 d under continuous light. The seedlings were incubated in ½-strength MS liquid media supplemented with 6 μM ES20-1 for 2 h. The images were collected by Zeiss 710 laser scanning confocal microscope equipped with 40×/1.2 NA water objective. For images of GFP-tagged proteins, the 488-nm laser line was used as an excitation source and emission light at 493-598 nm was collected. For images of YFP-tagged proteins, the 514-nm laser line was used as an excitation source and the emission light at 519-621 nm was collected."}},
  "data": [
    {"smiles": "Cc1ccccc1C(=O)NNC(=S)NC(=O)c1ccccc1", "note": "[ES20-1]", "values": [
      {"measurement": "reduction of CSC delivery rate to PM (FRAP)", "setting": "[1]; 5 min recovery after photobleaching, vs DMSO", "result": "~35", "unit": "%"},
      {"measurement": "CSC delivery rate to PM (FRAP)", "setting": "[1]; 5 min recovery, mean±SE, n=10 cells", "result": "1.41±0.19", "unit": "particle/μm^2/h"},
      {"measurement": "abundance of cortical SmaCCs", "setting": "[1]; 10 min, mean±SE, n=24 cells", "result": "7.07±0.34", "unit": "particle/100 μm^2"},
      {"measurement": "abundance (density) of CSCs at the PM", "setting": "[1]; 10 min, mean±SE, n=32 cells", "result": "0.64±0.03", "unit": "particle/μm^2"},
      {"measurement": "decrease of abundance of CSCs at the PM", "setting": "[1]; 10 min, vs DMSO", "result": "~30", "unit": "%"},
      {"measurement": "increase of abundance of cortical SmaCCs", "setting": "[1]; 10 min, vs DMSO", "result": "~30", "unit": "%"},
      {"measurement": "velocity of CSC particles at the PM", "setting": "[1]; 30 min, mean±SE, n=325", "result": "0.152 ± 0.005", "unit": "×10⁻⁶ cm/s"},
      {"measurement": "decrease of velocity of CSC particles at the PM", "setting": "[1]; 30 min, vs DMSO", "result": "~35", "unit": "%"},
      {"measurement": "integrated fluorescence intensity of Golgi-localized YFP-AtCESA6", "setting": "[1]; 1 h, mean±SE, n=55", "result": "8684.50±535.60"},
      {"measurement": "integrated fluorescence intensity of ManI-CFP", "setting": "[1]; 1 h, same cell", "result": "not affected"},
      {"measurement": "increase of integrated fluorescence intensity of Golgi-localized YFP-AtCESA6", "setting": "[1]; 1 h, vs DMSO", "result": "more than 25%"},
      {"measurement": "cellular localization of PIN2-GFP", "setting": "[2]", "result": "not significantly affected"},
      {"measurement": "cellular localization of organelle marker proteins GFP-PIP2a, GFP-HDEL, VHA-a1-GFP, YFP-Got1p", "setting": "[2]", "result": "are not affected"}
    ]}
  ]
}
